Test results: patent US9211291B2, “Treatment regimen utilizing neratinib for breast cancer” (WYETH LLC, priority 2009, dated 2015)

How the values were obtained:
[1] = system: erbB-1- and/or erbB 2-expressing carcinoma cell lines; details: read-out: cellular IC50, preclinical data; cited from earlier work
[2] = system: metastatic erbB-2 positive breast cancer; assay: phase 2 trial of neratinib as a single agent in subjects with metastatic erbB-2 positive breast cancer; format: in vivo, human; details: for median progression-free survival (PFS) / overall response rate (ORR): independent radiology assessment, preliminary data
From the text: Neratinib as a single agent has been studied in a phase 2 trial in subjects with metastatic erbB-2 positive breast cancer.

[3] = Arm A: subjects with prior trastuzumab treatment
[4] = Arm B: subjects without prior exposure to trastuzumab

Structure (SMILES): CCOc1cc2ncc(C#N)c(Nc3ccc(OCc4ccccn4)c(Cl)c3)c2cc1NC(=O)/C=C/CN(C)C [neratinib, (2E)-N-[4-[[3-chloro-4-[(pyridin-2-yl)methoxy]phenyl]amino]-3-cyano-7-ethoxyquinolin-6-yl]-4-(dimethylamino)but-2-enamide]
- IC50 [1]: < 100 nM
- median progression-free survival (PFS) [2, 3]: 23 weeks
- overall response rate (ORR) [2, 3]: 26%
- median progression-free survival (PFS) [2, 4]: 40 weeks
- overall response rate (ORR) [2, 4]: 57%
- main adverse event ([2]; generally well manageable with medication, treatment interruption, or dose modification): diarrhea
- other common adverse events ([2]; human, in vivo): nausea, vomiting, fatigue, and anorexia
